Active and inactive are the calls of the source. No cut-off for these calls is given here.
Tests used:
Format in all cases: functional, cell-based
MCF7 [1] = assay: Antiproliferative activity against human MCF7 cells at 0.625 nM after 24 hrs by MTS assay
MCF7 [2] = assay: Antiproliferative activity against human MCF7 cells at >0.625 to 10 nM after 24 hrs by MTS assay
MCF7 [3] = assay: Antiproliferative activity against human MCF7 cells at 0.3125 to 0.625 nM after 24 hrs by MTS assay

Structure (SMILES) | Activity (MCF7 [1]) | Activity (MCF7 [2]) | Activity (MCF7 [3])
COC(=O)C1CCN(CCOc2ccc(C3(C)c4ccc(O)cc4CCN3c3ccc(F)cc3)cc2)CC1 (stereo unspecified) | inactive | Active | 
COC(=O)C1CCN(CCOc2ccc(C3(C)c4ccc(O)cc4CCN3c3ccc(Cl)cc3)cc2)CC1 (stereo unspecified) |  | Active | Active
CCC(=C(c1ccc(O)cc1)c1ccc(OCCN(C)C)cc1)c1ccccc1 | Active | Active | 

Source: ChEMBL document CHEMBL1154446, “Synthesis and preliminary biological evaluation of new carbon-11 labeled tetrahydroisoquinoline derivatives as SERM radioligands for PET imaging of ER expression in breast cancer” (Eur J Med Chem, 2008)
